The experiment addresses T1, BrpR.
T1 construct: His6-tagged BrpR (brpR gene on pET-28a(+), expressed in E. coli BL21 (DE3))
In words: microscale thermophoresis (MST) with labeled purified His6-BrpR; supported by EMSA inhibition of promoter DNA binding. Details: species or system Vibrio vulnificus. (In general: MST reads how a fluorescent partner responds to local heating, with and without ligand.)

Our source for the Kd values is paper PMC11416940, “Identification and characterization of a small molecule BFstatin inhibiting BrpR, the transcriptional regulator for biofilm formation of Vibrio vulnificus” (Frontiers in Microbiology, 2024).

A word on the Kd: it is the constant that tells how readily two partners part at equilibrium. Read a low Kd as tighter binding.

`CCCNC(=O)CC(=O)Nc1cc(F)ccc1Cl` [175C05, N1-(2-chloro-5-fluorophenyl)-N3-propylmalonamide] came in with a Kd of 7.14 µM.
